Source: ChEMBL document CHEMBL3751730, “Synthesis and in vitro antitumor evaluation of dihydroartemisinin-cinnamic acid ester derivatives” (Eur J Med Chem, 2016)

Key:
Assay type in all cases: functional, cell-based
[1] = Antiproliferative activity against human SGC7901 cells after 72 hrs by MTT assay; conditions: SGC-7901, 72 h
[2] = Antiproliferative activity against human PC3 cells after 72 hrs by MTT assay; conditions: PC-3, 72 h
[3] = Antiproliferative activity against human MDA-MB-435S cells after 72 hrs by MTT assay
[4] = tested on: A549; assay: Antiproliferative activity against human A549 cells after 72 hrs by MTT assay; conditions: A549, 72 h

| Structure (SMILES) | IC50 [1] [µM] | IC50 [2] [µM] | IC50 [3] [µM] | IC50 [4] [µM] |
| --- | --- | --- | --- | --- |
| C[C@@H]1[C@H](OC(=O)/C=C/c2ccc([N+](=O)[O-])cc2)C[C@H]2[C@@H](C)[C@H](OC(=O)/C=C/c3ccc([N+](=O)[O-])cc3)O[C@@H]3O[C@@]4(C)CC[C@@H]1[C@]32OO4 | 18.8 | 10.7 | > 100 | > 100 |
| COc1cccc(/C=C/C(=O)O[C@@H]2O[C@@H]3O[C@@]4(C)CC[C@H]5[C@H](C)[C@H](O)C[C@@H]([C@H]2C)[C@@]35OO4)c1 | > 100 | > 100 | > 100 | > 100 |
| C[C@@H]1[C@H](OC(=O)/C=C/c2cccc(Cl)c2)C[C@H]2[C@@H](C)[C@H](OC(=O)/C=C/c3cccc(Cl)c3)O[C@@H]3O[C@@]4(C)CC[C@@H]1[C@]32OO4 | 12 | 11.1 | 22.4 | 2.72 |
| Cc1ccc(/C=C/C(=O)O[C@@H]2O[C@@H]3O[C@@]4(C)CC[C@H]5[C@H](C)[C@H](OC(=O)/C=C/c6ccc(C)cc6)C[C@@H]([C@H]2C)[C@@]35OO4)cc1 | > 100 | 87.2 | > 100 | > 100 |
| COc1ccccc1/C=C/C(=O)O[C@@H]1O[C@@H]2O[C@@]3(C)CC[C@H]4[C@H](C)[C@H](O)C[C@@H]([C@H]1C)[C@@]24OO3 | > 100 | 74.9 | 74.1 | > 100 |
| C[C@@H]1[C@H](O)C[C@H]2[C@@H](C)[C@H](OC(=O)/C=C/c3ccc(C(F)(F)F)cc3)O[C@@H]3O[C@@]4(C)CC[C@@H]1[C@]32OO4 | 85.7 | > 100 | > 100 | > 100 |
| COc1ccccc1/C=C/C(=O)O[C@@H]1O[C@@H]2O[C@@]3(C)CC[C@H]4[C@H](C)[C@H](OC(=O)/C=C/c5ccccc5OC)C[C@@H]([C@H]1C)[C@@]24OO3 | 46.4 | 11.5 | 52.3 | 2.55 |
| C[C@@H]1[C@H](O)C[C@H]2[C@@H](C)[C@H](OC(=O)/C=C/c3cccc(Cl)c3)O[C@@H]3O[C@@]4(C)CC[C@@H]1[C@]32OO4 | > 100 | > 100 | 95.9 | > 100 |
| C[C@@H]1[C@H](O)C[C@H]2[C@@H](C)[C@H](OC(=O)CCc3ccccc3)O[C@@H]3O[C@@]4(C)CC[C@@H]1[C@]32OO4 | > 100 | > 100 | > 100 | > 100 |
| Cc1ccc(/C=C/C(=O)O[C@@H]2O[C@@H]3O[C@@]4(C)CC[C@H]5[C@H](C)[C@H](O)C[C@@H]([C@H]2C)[C@@]35OO4)cc1 | > 100 | > 100 | > 100 | > 100 |
| C[C@@H]1[C@H](OC(=O)/C=C/c2ccc(Br)cc2)C[C@H]2[C@@H](C)[C@H](OC(=O)/C=C/c3ccc(Br)cc3)O[C@@H]3O[C@@]4(C)CC[C@@H]1[C@]32OO4 | 35.8 | 19.7 | > 100 | 35.3 |
| C[C@@H]1[C@H](O)C[C@H]2[C@@H](C)[C@H](OC(=O)/C=C/c3ccc(Cl)cc3)O[C@@H]3O[C@@]4(C)CC[C@@H]1[C@]32OO4 | > 100 | > 100 | 98.6 | > 100 |
| C[C@@H]1[C@H](O)C[C@H]2[C@@H](C)[C@H](OC(=O)/C=C/c3ccc(Br)cc3)O[C@@H]3O[C@@]4(C)CC[C@@H]1[C@]32OO4 | > 100 | > 100 | 84.5 | > 100 |
| C[C@@H]1[C@H](OC(=O)CCc2ccccc2)C[C@H]2[C@@H](C)[C@H](OC(=O)CCc3ccccc3)O[C@@H]3O[C@@]4(C)CC[C@@H]1[C@]32OO4 | 87.8 | 20.5 | > 100 | 43.2 |
| C[C@@H]1[C@H](O)C[C@H]2[C@@H](C)[C@H](OC(=O)/C=C/c3ccccc3Cl)O[C@@H]3O[C@@]4(C)CC[C@@H]1[C@]32OO4 | > 100 | > 100 | > 100 | > 100 |
| C[C@@H]1[C@H](OC(=O)/C=C/c2ccccc2F)C[C@H]2[C@@H](C)[C@H](OC(=O)/C=C/c3ccccc3F)O[C@@H]3O[C@@]4(C)CC[C@@H]1[C@]32OO4 | > 100 | 12.5 | 18.8 | 4.66 |
| C[C@@H]1[C@H](O)C[C@H]2[C@@H](C)[C@H](OC(=O)/C=C/c3ccc(F)cc3)O[C@@H]3O[C@@]4(C)CC[C@@H]1[C@]32OO4 | > 100 | > 100 | > 100 | > 100 |
| C[C@@H]1[C@H](OC(=O)/C=C/c2c(Cl)cccc2Cl)C[C@H]2[C@@H](C)[C@H](OC(=O)/C=C/c3c(Cl)cccc3Cl)O[C@@H]3O[C@@]4(C)CC[C@@H]1[C@]32OO4 | 60.8 | > 100 | > 100 | > 100 |
| COc1ccc(/C=C/C(=O)O[C@@H]2O[C@@H]3O[C@@]4(C)CC[C@H]5[C@H](C)[C@H](O)C[C@@H]([C@H]2C)[C@@]35OO4)c(OC)c1OC | > 100 | > 100 | 69.9 | 40.1 |
| C[C@@H]1[C@H](O)C[C@H]2[C@@H](C)[C@H](OC(=O)/C=C/c3ccc([N+](=O)[O-])cc3)O[C@@H]3O[C@@]4(C)CC[C@@H]1[C@]32OO4 | > 100 | > 100 | > 100 | > 100 |
| COc1ccc(/C=C/C(=O)O[C@@H]2O[C@@H]3O[C@@]4(C)CC[C@H]5[C@H](C)[C@H](OC(=O)/C=C/c6ccc(OC)cc6)C[C@@H]([C@H]2C)[C@@]35OO4)cc1 | 28.3 | 9.58 | 41.5 | 7.01 |
| C[C@@H]1[C@H](OC(=O)/C=C/c2ccc(F)cc2)C[C@H]2[C@@H](C)[C@H](OC(=O)/C=C/c3ccc(F)cc3)O[C@@H]3O[C@@]4(C)CC[C@@H]1[C@]32OO4 | > 100 | > 100 | > 100 | > 100 |
| COc1ccc(/C=C/C(=O)O[C@@H]2O[C@@H]3O[C@@]4(C)CC[C@H]5[C@H](C)[C@H](O)C[C@@H]([C@H]2C)[C@@]35OO4)cc1 | > 100 | > 100 | 87.1 | > 100 |
| C[C@@H]1[C@H](O)C[C@H]2[C@@H](C)[C@H](OC(=O)/C=C/c3ccccc3F)O[C@@H]3O[C@@]4(C)CC[C@@H]1[C@]32OO4 | > 100 | 89.6 | 47.1 | 92.7 |
| C[C@@H]1[C@H](O)C[C@H]2[C@@H](C)[C@H](OC(=O)/C=C/c3ccccc3)O[C@@H]3O[C@@]4(C)CC[C@@H]1[C@]32OO4 | > 100 | > 100 | 76.3 | > 100 |
| C[C@@H]1[C@H](OC(=O)/C=C/c2ccccc2Cl)C[C@H]2[C@@H](C)[C@H](OC(=O)/C=C/c3ccccc3Cl)O[C@@H]3O[C@@]4(C)CC[C@@H]1[C@]32OO4 | > 100 | 76.2 | > 100 | 96.2 |
